From PubChem BioAssay (NCI)
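Test compounds were applied to cells in 96-well plates for 48 hours at 5 doses. TGI denotes the concentration required for complete inhibition of growth.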

Legend:
Test in all cases: growth of human tumour cells (NCI), 48 h
NCI/ADR-RES ovarian = test system: NCI/ADR-RES ovarian
M14 melanoma = test system: M14 melanoma
SF-268 CNS = test system: SF-268 CNS
LOX IMVI melanoma = test system: LOX IMVI melanoma
A549 NSCLC = test system: A549 NSCLC
SF-295 CNS = test system: SF-295 CNS
T-47D breast = test system: T-47D breast
SK-OV-3 ovarian = test system: SK-OV-3 ovarian
SR leukemia = test system: SR leukemia
MDA-MB-231 breast = test system: MDA-MB-231 breast
MOLT-4 leukemia = test system: MOLT-4 leukemia
TK-10 renal = test system: TK-10 renal
U251 CNS = test system: U251 CNS
HCT-15 colon = test system: HCT-15 colon
HOP-62 NSCLC = test system: HOP-62 NSCLC
A498 renal = test system: A498 renal
786-0 renal = test system: 786-0 renal
OVCAR-8 ovarian = test system: OVCAR-8 ovarian
RXF 393 renal = test system: RXF 393 renal
SF-539 CNS = test system: SF-539 CNS
HCC-2998 colon = test system: HCC-2998 colon
BT-549 breast = test system: BT-549 breast
MDA-MB-435 = test system: MDA-MB-435
UACC-257 melanoma = test system: UACC-257 melanoma
SW-620 colon = test system: SW-620 colon
SK-MEL-5 melanoma = test system: SK-MEL-5 melanoma
SK-MEL-28 melanoma = test system: SK-MEL-28 melanoma
IGROV1 ovarian = test system: IGROV1 ovarian
HT29 colon = test system: HT29 colon
MCF7 breast = test system: MCF7 breast
OVCAR-5 ovarian = test system: OVCAR-5 ovarian
SNB-19 CNS = test system: SNB-19 CNS
UO-31 renal = test system: UO-31 renal
KM12 colon = test system: KM12 colon
NCI-H23 lung = test system: NCI-H23 lung
HS 578T breast = test system: HS 578T breast
NCI-H226 lung = test system: NCI-H226 lung
PC-3 prostate = test system: PC-3 prostate
CCRF-CEM leukemia = test system: CCRF-CEM leukemia
EKVX NSCLC = test system: EKVX NSCLC
SK-MEL-2 melanoma = test system: SK-MEL-2 melanoma
ACHN renal = test system: ACHN renal
MDA-N = test system: MDA-N
RPMI-8226 leukemia = test system: RPMI-8226 leukemia
K-562 leukemia = test system: K-562 leukemia
NCI-H460 lung = test system: NCI-H460 lung
SN12C renal = test system: SN12C renal
HCT-116 colon = test system: HCT-116 colon
NCI-H522 lung = test system: NCI-H522 lung
CAKI-1 renal = test system: CAKI-1 renal
DU-145 prostate = test system: DU-145 prostate
OVCAR-3 ovarian = test system: OVCAR-3 ovarian
UACC-62 melanoma = test system: UACC-62 melanoma
SNB-75 CNS = test system: SNB-75 CNS
OVCAR-4 ovarian = test system: OVCAR-4 ovarian
COLO 205 colon = test system: COLO 205 colon
MALME-3M melanoma = test system: MALME-3M melanoma
HL-60(TB) leukemia = test system: HL-60(TB) leukemia

SMILES: C#Cc1nc(N)c2ncn(C3OC(COS(N)(=O)=O)C(O)C3O)c2n1 (centres undefined)
- TGI (NCI/ADR-RES ovarian): < 0.0291 µM
- TGI (M14 melanoma): 0.457 µM
- TGI (SF-268 CNS): 0.688 µM
- TGI (LOX IMVI melanoma): < 0.0325 µM
- TGI (A549 NSCLC): 1.56 µM
- TGI (SF-295 CNS): 3.17 µM
- TGI (T-47D breast): < 0.01 µM
- TGI (SK-OV-3 ovarian): < 0.01 µM
- TGI (SR leukemia): < 0.0172 µM
- TGI (MDA-MB-231 breast): < 0.0476 µM
- TGI (MOLT-4 leukemia): < 0.0258 µM
- TGI (TK-10 renal): 0.327 µM
- TGI (U251 CNS): 0.449 µM
- TGI (HCT-15 colon): 0.429 µM
- TGI (HOP-62 NSCLC): 1.97 µM
- TGI (A498 renal): < 0.0302 µM
- TGI (786-0 renal): 0.797 µM
- TGI (OVCAR-8 ovarian): 0.194 µM
- TGI (RXF 393 renal): 0.0866 µM
- TGI (SF-539 CNS): 0.198 µM
- TGI (HCC-2998 colon): 0.191 µM
- TGI (BT-549 breast): 0.349 µM
- TGI (MDA-MB-435): 0.0717 µM
- TGI (UACC-257 melanoma): 0.339 µM
- TGI (SW-620 colon): 0.665 µM
- TGI (SK-MEL-5 melanoma): 0.344 µM
- TGI (SK-MEL-28 melanoma): 0.298 µM
- TGI (IGROV1 ovarian): 0.114 µM
- TGI (HT29 colon): 0.481 µM
- TGI (MCF7 breast): > 100 µM
- TGI (OVCAR-5 ovarian): 0.122 µM
- TGI (SNB-19 CNS): 0.266 µM
- TGI (UO-31 renal): 0.15 µM
- TGI (KM12 colon): 0.352 µM
- TGI (NCI-H23 lung): 0.136 µM
- TGI (HS 578T breast): 0.736 µM
- TGI (NCI-H226 lung): 0.0491 µM
- TGI (PC-3 prostate): 0.213 µM
- TGI (CCRF-CEM leukemia): < 0.0258 µM
- TGI (EKVX NSCLC): 1.29 µM
- TGI (SK-MEL-2 melanoma): 0.0196 µM
- TGI (ACHN renal): 0.0743 µM
- TGI (MDA-N): < 0.0299 µM
- TGI (RPMI-8226 leukemia): 0.11 µM
- TGI (K-562 leukemia): > 100 µM
- TGI (NCI-H460 lung): 0.634 µM
- TGI (SN12C renal): 0.256 µM
- TGI (HCT-116 colon): 0.288 µM
- TGI (NCI-H522 lung): < 0.01 µM
- TGI (CAKI-1 renal): 0.225 µM
- TGI (DU-145 prostate): 0.0997 µM
- TGI (OVCAR-3 ovarian): 0.0901 µM
- TGI (UACC-62 melanoma): 0.369 µM
- TGI (SNB-75 CNS): 0.349 µM

SMILES: Clc1ccc(Cl)c(NNc2cc(Cl)ccc2Cl)c1
- TGI (NCI/ADR-RES ovarian): 9 µM
- TGI (M14 melanoma): > 10 µM
- TGI (SF-268 CNS): > 10 µM
- TGI (LOX IMVI melanoma): > 10 µM
- TGI (A549 NSCLC): > 10 µM
- TGI (SF-295 CNS): > 10 µM
- TGI (T-47D breast): > 10 µM
- TGI (SK-OV-3 ovarian): > 10 µM
- TGI (SR leukemia): > 10 µM
- TGI (MDA-MB-231 breast): > 10 µM
- TGI (MOLT-4 leukemia): > 10 µM
- TGI (TK-10 renal): > 10 µM
- TGI (U251 CNS): > 10 µM
- TGI (OVCAR-4 ovarian): > 10 µM
- TGI (HCT-15 colon): > 10 µM
- TGI (HOP-62 NSCLC): > 10 µM
- TGI (A498 renal): > 10 µM
- TGI (786-0 renal): > 10 µM
- TGI (OVCAR-8 ovarian): > 10 µM
- TGI (RXF 393 renal): > 10 µM
- TGI (SF-539 CNS): > 10 µM
- TGI (HCC-2998 colon): > 10 µM
- TGI (BT-549 breast): > 10 µM
- TGI (MDA-MB-435): > 10 µM
- TGI (UACC-257 melanoma): > 10 µM
- TGI (SW-620 colon): > 10 µM
- TGI (SK-MEL-5 melanoma): 6.35 µM
- TGI (SK-MEL-28 melanoma): > 10 µM
- TGI (IGROV1 ovarian): > 10 µM
- TGI (HT29 colon): > 10 µM
- TGI (MCF7 breast): > 10 µM
- TGI (OVCAR-5 ovarian): > 10 µM
- TGI (SNB-19 CNS): > 10 µM
- TGI (COLO 205 colon): > 10 µM
- TGI (KM12 colon): > 10 µM
- TGI (NCI-H23 lung): 7.18 µM
- TGI (HS 578T breast): > 10 µM
- TGI (NCI-H226 lung): > 10 µM
- TGI (PC-3 prostate): > 10 µM
- TGI (CCRF-CEM leukemia): > 10 µM
- TGI (EKVX NSCLC): > 10 µM
- TGI (SK-MEL-2 melanoma): 8.6 µM
- TGI (ACHN renal): 7.43 µM
- TGI (MDA-N): > 10 µM
- TGI (RPMI-8226 leukemia): > 10 µM
- TGI (K-562 leukemia): > 10 µM
- TGI (MALME-3M melanoma): 9.7 µM
- TGI (NCI-H460 lung): > 10 µM
- TGI (SN12C renal): > 10 µM
- TGI (HCT-116 colon): > 10 µM
- TGI (NCI-H522 lung): > 10 µM
- TGI (CAKI-1 renal): > 10 µM
- TGI (DU-145 prostate): > 10 µM
- TGI (OVCAR-3 ovarian): 7.81 µM
- TGI (UACC-62 melanoma): > 10 µM
- TGI (HL-60(TB) leukemia): > 10 µM

SMILES: O=C(O)CCC(N=C(C(=NC(CCC(=O)O)C(=O)O)c1ccccc1)c1ccccc1)C(=O)O (centres undefined)
- TGI (NCI/ADR-RES ovarian): > 100 µM
- TGI (M14 melanoma): > 100 µM
- TGI (SF-268 CNS): > 100 µM
- TGI (LOX IMVI melanoma): > 100 µM
- TGI (A549 NSCLC): > 100 µM
- TGI (SF-295 CNS): > 100 µM
- TGI (T-47D breast): > 100 µM
- TGI (SK-OV-3 ovarian): > 100 µM
- TGI (SR leukemia): > 100 µM
- TGI (MDA-MB-231 breast): > 100 µM
- TGI (MOLT-4 leukemia): > 100 µM
- TGI (TK-10 renal): > 100 µM
- TGI (U251 CNS): > 100 µM
- TGI (OVCAR-4 ovarian): > 100 µM
- TGI (HCT-15 colon): > 100 µM
- TGI (HOP-62 NSCLC): > 100 µM
- TGI (A498 renal): > 100 µM
- TGI (786-0 renal): > 100 µM
- TGI (OVCAR-8 ovarian): > 100 µM
- TGI (RXF 393 renal): > 100 µM
- TGI (HCC-2998 colon): > 100 µM
- TGI (BT-549 breast): > 100 µM
- TGI (MDA-MB-435): > 100 µM
- TGI (UACC-257 melanoma): > 100 µM
- TGI (SW-620 colon): > 100 µM
- TGI (SK-MEL-28 melanoma): > 100 µM
- TGI (MCF7 breast): > 100 µM
- TGI (OVCAR-5 ovarian): > 100 µM
- TGI (SNB-19 CNS): > 100 µM
- TGI (COLO 205 colon): > 100 µM
- TGI (UO-31 renal): > 100 µM
- TGI (KM12 colon): > 100 µM
- TGI (NCI-H23 lung): > 100 µM
- TGI (HS 578T breast): > 100 µM
- TGI (NCI-H226 lung): > 100 µM
- TGI (PC-3 prostate): > 100 µM
- TGI (EKVX NSCLC): > 100 µM
- TGI (SK-MEL-2 melanoma): > 100 µM
- TGI (ACHN renal): > 100 µM
- TGI (MDA-N): > 100 µM
- TGI (RPMI-8226 leukemia): > 100 µM
- TGI (K-562 leukemia): > 100 µM
- TGI (NCI-H460 lung): > 100 µM
- TGI (SN12C renal): > 100 µM
- TGI (HCT-116 colon): > 100 µM
- TGI (DU-145 prostate): > 100 µM
- TGI (OVCAR-3 ovarian): > 100 µM
- TGI (UACC-62 melanoma): > 100 µM
- TGI (SNB-75 CNS): > 100 µM
